Laboratory results from patent publication US10092510B2, “Veterinary method for inducing emesis” (Orion Corporation, priority 2013, dated 2018).
Values joined by “and” are separate entries in the source; they are usually repeats but may differ in a detail not shown here. Identical values can stand only once. Counter-ions that a name gives are not always drawn. Like-named read-outs stand apart in the source and are kept apart here.

System: dogs
[1] = average of 6 dogs, pH 10, conc. 5 mg/ml, dose 30 μg/kg, both eyes
[2] = individual dogs 1-6, pH 10, conc. 5 mg/ml, dose 30 μg/kg, both eyes
[3] = average of 6 dogs, pH 4, conc. 10 mg/ml, dose 50 μg/kg, both eyes, fasted
[4] = average of 6 dogs, pH 4, conc. 40 mg/ml, dose 100 μg/kg, right eye, fed
[5] = individual dogs 1-6, pH 4, conc. 10 mg/ml, dose 50 μg/kg, both eyes, fasted, hydrochloride
[6] = individual dogs 1-6, pH 4, conc. 40 mg/ml, dose 100 μg/kg, right eye, fed, hydrochloride

## CCCN[C@H]1CCc2nc(N)sc2C1 [Pramipexole]
[1]
  Number of vomits: 3.3
  Onset of the first vomit (average induction time for emesis): 4.5 min
  The last vomit (vomiting ended on the average): 31.3 min
Eye drop solution 5 mg/ml, pH 10, dose 30 μg/kg, six dogs
  Prolonged emesis or irritation: No prolonged emesis or significant irritation
[2]
  Number of vomits: 6 (2×) and 1 (2×) and 3 (2×)
  Onset of the first vomit: 2 min and 3 min (3×) and 4 min and 12 min
  The last vomit: 62 min (2×) and 3 min and 27 min and 22 min and 12 min

## CCCN(CCC)CCc1cccc2c1CC(=O)N2 [Ropinirole HCl, Ropinirole hydrochloride]
[3]
  Number of vomits: 3.5
  Onset of the first vomit (average induction time for emesis): 6.7 min
  The last vomit (vomiting ended on the average): 20.5 min
[4]
  Number of vomits: 2.3
  Onset of the first vomit (average induction time for emesis): 4.8 min
  The last vomit (vomiting ended on the average): 12.3 min
Eye drop composition, general statement (typically)
  Time at which vomiting ends, from the administration: ≤ 20 min
General statement of findings
  Onset of emesis and tolerability when administered to the eye of the animal: consistent and rapid onset of emesis without producing unnecessarily prolonged emesis, ocular discomfort or significant local irritation
[5]
  Number of vomits: 3 (4×) and 2 and 7
  Onset of the first vomit: 7 min and 6 min (3×) and 4 min and 11 min
  The last vomit: 21 min and 20 min (2×) and 14 min and 12 min and 36 min
[6]
  Number of vomits: 2 (3×) and 1 and 4 and 3
  Onset of the first vomit: 6 min (2×) and 2 min and 7 min and 5 min and 3 min
  The last vomit: 9 min and 10 min and 7 min and 15 min and 20 min (2×)
pH 4, conc. 10 mg/ml, dose 50 μg/kg, both eyes, fasted
  Dogs vomiting / dogs treated: Average 6/6
pH 4, conc. 40 mg/ml, dose 100 μg/kg, right eye, fed
  Dogs vomiting / dogs treated: Average 6/6
